# Patent US12329786B2, “Regulate gut microbiota to treat neurodegenerative disorders” (California Institute of Technology, priority 2016, dated 2025)
# Target: T1, human αSyn (Homo sapiens, UniProt P37840)
# T1 construct: made in house
# Test: In vitro αSyn aggregation kinetics by ThT fluorescence
# Assay type: biochemical
# Details: range of concentrations, singly or in mixtures
# Protocol: The ThT fluorescence signal was recorded using a microplate reader (Fluostar OPTIMA Microplate reader, BMG Labtech) with the excitation filter of 440±10 nm and an emission filter of 490±10 nm under intermittent shaking conditions at 37 °C. The kinetic curves were normalized to the fluorescence maxima and the time to reach half-maximum intensity quantified. For atomic force microscopy (AFM) imaging, samples were diluted with ultrapure water to […] total protein concentration, and […] were pipetted onto freshly cleaved mica and left to dry. The samples were imaged with a Modular scanning probe microscope NTEGRA Prima (NT-MDT) in intermittent contact mode in air using a gold-coated single crystal silicon cantilever (spring constant of ˜5.1 N/m) with a resonance frequency of ˜150 kHz. AFM images were processed with Gwyddion open source software.
row,SMILES,"αSyn aggregation kinetics (ThT fluorescence, time to half-max)"
1,CC(=O)[O-].[Na+] [sodium acetate],did not expedite the aggregation of human αSyn in vitro
2,CCCC(=O)[O-].[Na+] [sodium butyrate],did not expedite the aggregation of human αSyn in vitro
3,CCC(=O)[O-].[Na+] [sodium propionate],did not expedite the aggregation of human αSyn in vitro
